Laboratory results from US8741653B2, “Single recombination system and methods of use” (priority 2008, dated 2014).

What was measured:
[1] = test system: MVA; format: cell-based, Modified Vaccinia Ankara virus
[2] = test system: CEF cells

CN(C)[C@@H]1C(O)=C(C(N)=O)C(=O)[C@@]2(O)C(O)=C3C(=O)c4c(O)cccc4[C@@](C)(O)[C@H]3C[C@@H]12 [tetracycline]
reduction of MVA replication [1]: 1 log | cytotoxic effect of tetracycline [2]: pronounced cytotoxic effect
